Values of other authors, collected in US4579840A, “Method of blocking immune complex binding to immunoglobulin Fc receptors” (Immunetech Pharmaceuticals, priority 1983, dated 1986).
Ends that are not written are not given here.

Assays:
[1] = tested on: granulocytes, monocytes and macrophages; settings: in vitro; literature; cited from earlier work
[2] = tested on: human and rodent mast cells; settings: Stanworth et al. 1979; cited from earlier work
[3] = tested on: human monocyte IgG Fc receptors; settings: literature (Ciccimarra 1975; Stanworth 1982; Ratcliffe and Stanworth 1982); Tuftsin also 'ourselves'; cited from earlier work
[4] = tested on: systemic allergic disease; settings: after injection by the subcutaneous route; cited from earlier work
[5] = tested on: local cutaneous allergic reaction (Prausnitz-Kustner); settings: Hamburger 1975; cited from earlier work
[6] = biological target: T1, IgE Fc receptor of human basophils (Homo sapiens, UniProt P12319); settings: Plummer et al. 1983; cited from earlier work
T1 construct: host or cells: human basophils
T1 sequence (P12319 26-257): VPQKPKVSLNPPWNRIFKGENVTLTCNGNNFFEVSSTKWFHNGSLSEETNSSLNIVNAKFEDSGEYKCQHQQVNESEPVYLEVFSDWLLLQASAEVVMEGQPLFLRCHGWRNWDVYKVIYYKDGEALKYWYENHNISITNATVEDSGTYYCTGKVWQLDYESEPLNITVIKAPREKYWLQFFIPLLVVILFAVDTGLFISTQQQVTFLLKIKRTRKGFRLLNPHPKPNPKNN
T1 sequence (Q01362 1-244 partner): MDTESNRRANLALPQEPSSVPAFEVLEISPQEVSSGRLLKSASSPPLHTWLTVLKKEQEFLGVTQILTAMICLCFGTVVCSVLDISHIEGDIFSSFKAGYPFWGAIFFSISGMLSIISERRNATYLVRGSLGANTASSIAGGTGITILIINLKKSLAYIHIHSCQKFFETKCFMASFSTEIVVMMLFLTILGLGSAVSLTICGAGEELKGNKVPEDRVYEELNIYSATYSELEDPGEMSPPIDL
T1 sequence (P30273 19-86 partner): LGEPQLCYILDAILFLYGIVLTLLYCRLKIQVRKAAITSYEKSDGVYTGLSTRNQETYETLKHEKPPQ

[7] = tested on: macrophage IgG Fc receptors of mice; settings: Stanworth 1982; cited from earlier work
C1 = C1 (Homo sapiens, UniProt P02745+P02746+P02747); settings: Prystowsky et al. 1981, Lukas et al. 1981; cited from earlier work
lymphocytes = settings: Morgan, Huguli and Weigle 1982; cited from earlier work

Sequence of C1 (P02745 23-245): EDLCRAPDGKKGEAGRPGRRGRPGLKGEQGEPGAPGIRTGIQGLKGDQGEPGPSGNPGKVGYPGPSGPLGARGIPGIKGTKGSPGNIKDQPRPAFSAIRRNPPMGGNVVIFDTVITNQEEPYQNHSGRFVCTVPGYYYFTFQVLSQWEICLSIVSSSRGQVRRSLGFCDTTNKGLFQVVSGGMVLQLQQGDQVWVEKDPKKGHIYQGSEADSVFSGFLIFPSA
Sequence of C1 (P02746 28-253): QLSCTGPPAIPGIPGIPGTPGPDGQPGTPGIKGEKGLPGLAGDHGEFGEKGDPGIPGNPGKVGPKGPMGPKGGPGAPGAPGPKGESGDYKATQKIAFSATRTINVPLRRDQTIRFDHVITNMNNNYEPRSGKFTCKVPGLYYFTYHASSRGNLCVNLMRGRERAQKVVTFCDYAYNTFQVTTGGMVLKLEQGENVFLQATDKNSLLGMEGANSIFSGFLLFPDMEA
Sequence of C1 (P02747 29-245): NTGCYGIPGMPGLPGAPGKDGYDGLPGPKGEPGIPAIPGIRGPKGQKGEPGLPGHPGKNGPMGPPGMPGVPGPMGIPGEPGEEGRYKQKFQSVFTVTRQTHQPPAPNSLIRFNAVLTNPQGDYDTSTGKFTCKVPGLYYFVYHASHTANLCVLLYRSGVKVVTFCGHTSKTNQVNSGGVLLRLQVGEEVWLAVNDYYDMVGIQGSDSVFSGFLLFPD
Sequence of C1 (P00736 18-705 partner): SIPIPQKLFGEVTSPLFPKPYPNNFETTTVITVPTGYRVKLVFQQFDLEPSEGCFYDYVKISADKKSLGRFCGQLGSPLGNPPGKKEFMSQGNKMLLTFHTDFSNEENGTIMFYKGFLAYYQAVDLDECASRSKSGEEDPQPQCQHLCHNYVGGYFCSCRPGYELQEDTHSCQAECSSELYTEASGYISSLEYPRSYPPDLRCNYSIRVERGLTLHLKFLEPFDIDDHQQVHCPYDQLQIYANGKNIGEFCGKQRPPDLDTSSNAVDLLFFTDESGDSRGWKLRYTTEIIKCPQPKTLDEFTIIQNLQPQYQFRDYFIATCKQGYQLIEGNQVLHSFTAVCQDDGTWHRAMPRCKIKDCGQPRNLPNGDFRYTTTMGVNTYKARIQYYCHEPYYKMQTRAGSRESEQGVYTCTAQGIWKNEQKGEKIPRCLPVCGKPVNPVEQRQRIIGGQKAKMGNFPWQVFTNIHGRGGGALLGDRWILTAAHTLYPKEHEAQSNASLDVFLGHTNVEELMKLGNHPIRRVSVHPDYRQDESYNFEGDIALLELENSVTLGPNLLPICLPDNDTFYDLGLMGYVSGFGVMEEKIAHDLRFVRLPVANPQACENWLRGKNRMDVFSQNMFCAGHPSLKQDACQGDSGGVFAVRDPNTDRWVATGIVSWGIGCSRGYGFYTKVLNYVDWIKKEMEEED
Sequence of C1 (P09871 16-688 partner): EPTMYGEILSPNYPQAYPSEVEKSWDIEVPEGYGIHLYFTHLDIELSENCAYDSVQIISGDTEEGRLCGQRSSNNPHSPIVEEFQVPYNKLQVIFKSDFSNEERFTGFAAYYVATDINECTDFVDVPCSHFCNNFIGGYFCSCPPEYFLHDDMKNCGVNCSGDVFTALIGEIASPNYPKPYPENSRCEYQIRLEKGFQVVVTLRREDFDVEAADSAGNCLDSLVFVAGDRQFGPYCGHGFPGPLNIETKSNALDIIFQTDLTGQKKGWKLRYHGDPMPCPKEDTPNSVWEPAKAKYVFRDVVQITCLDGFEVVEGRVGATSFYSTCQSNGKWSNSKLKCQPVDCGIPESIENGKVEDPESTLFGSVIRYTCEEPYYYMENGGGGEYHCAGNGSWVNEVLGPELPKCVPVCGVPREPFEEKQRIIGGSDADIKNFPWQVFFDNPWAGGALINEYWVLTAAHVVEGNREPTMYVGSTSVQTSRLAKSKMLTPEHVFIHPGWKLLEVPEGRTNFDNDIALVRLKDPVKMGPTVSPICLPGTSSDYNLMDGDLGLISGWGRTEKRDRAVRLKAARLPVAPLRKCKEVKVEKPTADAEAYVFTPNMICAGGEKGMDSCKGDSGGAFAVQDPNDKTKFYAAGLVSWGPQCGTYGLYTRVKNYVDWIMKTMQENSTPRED

Gly-Gln-Pro-Arg (GQPR; printed: Gly-Gln-Pro-Arg) [Rigin]
stimulation of phagocytosis [1]: phagocytosis-stimulating abilities similar to those of Tuftsin

PRKTKGSGFFVF
degranulation of mast cells [2]: able to cause degranulation

QYDSTYR
blocking of human IgG binding to human monocyte IgG Fc receptors [3]: could slightly block

Asp-Ser-Asp-Pro-Arg (DSDPR; printed: Asp-Ser-Asp-Pro-Arg)
effect on systemic allergic disease in humans [4]: inhibit systemic allergic disease
inhibition of local cutaneous allergic reaction (Prausnitz-Kustner) [5]: approximately 90%
block of human IgE binding to basophil IgE Fc receptors [6]: up to 70%

VFSRLEVTRAE
binding of 125I-human IgG to mouse macrophages [7]: marked enhancement

Thr-Lys-Pro-Arg (TKPR; printed: Thr-Lys-Pro-Arg) [Tuftsin]
inhibition of C1-mediated hemolysis (C1): less active
stimulation of phagocytosis [1]: active at nanomolar concentrations
blocking of human IgG binding to human monocyte IgG Fc receptors [3]: competitively inhibits

TISKAKGQPREPQVYTLPSREEM
nonspecific activation of lymphocytes (lymphocytes): induce polyclonal B cell proliferation, antigen-specific antibody responses and Natural Killer (NK) cell-mediated lysis

Val-Gln-Val-His-Asn-Ala-Lys-Thr-Lys-Pro-Arg-OH (VQVHNAKTKPR-OH)
inhibition of C1-mediated hemolysis (C1): approximately as active as inhibitors as intact monomeric IgG
